In ChEMBL document CHEMBL5465560, “Selectivity Literature for EUbOPEN Chemogenomic Library” (2024):

Tests used:
[1] = target: T1, NUAK family SNF1-like kinase 1 (Homo sapiens) (UniProt O60285); conditions: at 10 µM
T1 sequence (whole entry): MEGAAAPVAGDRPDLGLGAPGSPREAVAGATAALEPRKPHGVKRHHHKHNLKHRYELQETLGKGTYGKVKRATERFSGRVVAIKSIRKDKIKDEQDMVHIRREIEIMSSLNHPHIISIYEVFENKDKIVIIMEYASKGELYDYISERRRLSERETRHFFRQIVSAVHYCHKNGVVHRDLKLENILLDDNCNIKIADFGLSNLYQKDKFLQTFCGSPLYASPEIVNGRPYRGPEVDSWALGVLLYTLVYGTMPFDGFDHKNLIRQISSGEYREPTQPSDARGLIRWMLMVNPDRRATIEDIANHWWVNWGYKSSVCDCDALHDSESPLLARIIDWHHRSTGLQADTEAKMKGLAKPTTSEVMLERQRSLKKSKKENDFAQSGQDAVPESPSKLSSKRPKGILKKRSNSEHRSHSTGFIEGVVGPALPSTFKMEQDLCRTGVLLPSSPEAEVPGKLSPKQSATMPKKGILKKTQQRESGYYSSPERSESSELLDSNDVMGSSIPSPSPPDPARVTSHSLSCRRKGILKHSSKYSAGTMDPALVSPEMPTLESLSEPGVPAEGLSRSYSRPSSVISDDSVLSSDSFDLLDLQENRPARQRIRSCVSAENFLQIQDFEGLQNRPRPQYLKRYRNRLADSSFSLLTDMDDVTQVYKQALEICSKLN

[2] = target: Serine/threonine-protein kinase OSR1 (Homo sapiens) (UniProt O95747); test: Selectivity interaction (Ambit KINOMEscan and KiNATiv profiling in Jurkat cells) EUB0000090b OXSR1; type: cell-based; conditions: at 1 µM
Activated CDC42 kinase 1 = Activated CDC42 kinase 1 (Homo sapiens, UniProt Q07912); test: Selectivity interaction (KinomeScan (DiscoverX)) EUB0001079a TNK2; conditions: at 1 µM
Activated CDC42 kinase 1, sequence (Q07912 whole entry, looked up): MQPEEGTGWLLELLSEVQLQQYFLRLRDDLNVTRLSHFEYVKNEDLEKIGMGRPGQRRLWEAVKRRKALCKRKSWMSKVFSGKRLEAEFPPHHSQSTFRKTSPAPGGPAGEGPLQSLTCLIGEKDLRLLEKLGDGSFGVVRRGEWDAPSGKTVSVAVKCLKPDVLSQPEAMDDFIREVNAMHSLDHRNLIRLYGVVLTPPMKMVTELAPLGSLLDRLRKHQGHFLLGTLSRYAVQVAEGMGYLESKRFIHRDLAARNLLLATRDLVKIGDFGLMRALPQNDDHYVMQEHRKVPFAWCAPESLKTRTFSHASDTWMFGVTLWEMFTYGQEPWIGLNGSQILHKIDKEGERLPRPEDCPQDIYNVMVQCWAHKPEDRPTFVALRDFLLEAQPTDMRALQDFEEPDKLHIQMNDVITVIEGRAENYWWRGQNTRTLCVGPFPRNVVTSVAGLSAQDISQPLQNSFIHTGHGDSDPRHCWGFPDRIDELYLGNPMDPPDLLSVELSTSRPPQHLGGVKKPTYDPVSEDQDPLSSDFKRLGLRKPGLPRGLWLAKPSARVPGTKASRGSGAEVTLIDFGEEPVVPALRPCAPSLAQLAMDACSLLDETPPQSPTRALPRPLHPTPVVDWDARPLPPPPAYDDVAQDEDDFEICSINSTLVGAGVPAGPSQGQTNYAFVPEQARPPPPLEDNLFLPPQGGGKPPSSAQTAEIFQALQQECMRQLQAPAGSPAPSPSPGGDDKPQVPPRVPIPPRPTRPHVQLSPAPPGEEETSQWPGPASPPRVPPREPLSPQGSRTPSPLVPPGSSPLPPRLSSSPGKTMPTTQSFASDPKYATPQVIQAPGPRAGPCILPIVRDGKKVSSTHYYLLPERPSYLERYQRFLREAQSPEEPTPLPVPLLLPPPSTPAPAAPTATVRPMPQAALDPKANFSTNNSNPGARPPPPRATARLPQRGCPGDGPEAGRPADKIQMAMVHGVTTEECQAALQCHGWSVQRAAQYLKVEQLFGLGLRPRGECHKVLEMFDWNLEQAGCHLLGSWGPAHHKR

[3] = target: Serine/threonine-protein kinase pim-3 (Homo sapiens) (UniProt Q86V86); test: Selectivity interaction (KinomeScan (DiscoverX)) EUB0000618a PIM3; conditions: at 10 µM
Ephrin type-A receptor 4 = Ephrin type-A receptor 4 (Homo sapiens, UniProt P54764); test: Selectivity interaction (KinomeScan (DiscoverX)) EUB0000607a EPHA4; conditions: at 10 µM
Ephrin type-A receptor 4, sequence (P54764 whole entry): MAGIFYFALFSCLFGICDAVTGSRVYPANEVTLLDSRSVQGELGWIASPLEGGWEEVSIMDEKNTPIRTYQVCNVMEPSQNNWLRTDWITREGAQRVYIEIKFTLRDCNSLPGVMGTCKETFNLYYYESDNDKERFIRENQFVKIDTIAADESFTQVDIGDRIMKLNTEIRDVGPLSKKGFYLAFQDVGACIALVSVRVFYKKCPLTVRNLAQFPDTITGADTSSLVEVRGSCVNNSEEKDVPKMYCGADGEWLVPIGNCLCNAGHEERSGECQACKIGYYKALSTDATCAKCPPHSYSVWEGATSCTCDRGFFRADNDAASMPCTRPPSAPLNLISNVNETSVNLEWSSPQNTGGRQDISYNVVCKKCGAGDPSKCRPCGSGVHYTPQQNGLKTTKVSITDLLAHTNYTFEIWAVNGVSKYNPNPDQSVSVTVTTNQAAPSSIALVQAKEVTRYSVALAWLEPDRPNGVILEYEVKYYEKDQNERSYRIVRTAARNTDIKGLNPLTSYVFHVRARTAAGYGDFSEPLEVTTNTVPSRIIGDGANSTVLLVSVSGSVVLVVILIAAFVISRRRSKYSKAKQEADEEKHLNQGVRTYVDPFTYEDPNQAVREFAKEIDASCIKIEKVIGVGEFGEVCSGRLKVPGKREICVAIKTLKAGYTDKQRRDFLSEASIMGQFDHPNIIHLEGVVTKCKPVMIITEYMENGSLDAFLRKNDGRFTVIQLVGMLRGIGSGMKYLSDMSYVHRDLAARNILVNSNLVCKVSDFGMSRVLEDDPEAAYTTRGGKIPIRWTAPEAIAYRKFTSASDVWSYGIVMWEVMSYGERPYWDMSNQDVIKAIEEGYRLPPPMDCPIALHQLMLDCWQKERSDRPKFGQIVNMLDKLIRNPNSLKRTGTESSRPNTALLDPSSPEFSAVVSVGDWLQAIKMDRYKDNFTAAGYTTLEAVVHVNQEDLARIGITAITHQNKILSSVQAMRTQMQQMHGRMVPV

[4] = target: T2, Tyrosine-protein kinase Mer (Homo sapiens) (UniProt Q12866); conditions: at 10 µM
T2 sequence (whole entry): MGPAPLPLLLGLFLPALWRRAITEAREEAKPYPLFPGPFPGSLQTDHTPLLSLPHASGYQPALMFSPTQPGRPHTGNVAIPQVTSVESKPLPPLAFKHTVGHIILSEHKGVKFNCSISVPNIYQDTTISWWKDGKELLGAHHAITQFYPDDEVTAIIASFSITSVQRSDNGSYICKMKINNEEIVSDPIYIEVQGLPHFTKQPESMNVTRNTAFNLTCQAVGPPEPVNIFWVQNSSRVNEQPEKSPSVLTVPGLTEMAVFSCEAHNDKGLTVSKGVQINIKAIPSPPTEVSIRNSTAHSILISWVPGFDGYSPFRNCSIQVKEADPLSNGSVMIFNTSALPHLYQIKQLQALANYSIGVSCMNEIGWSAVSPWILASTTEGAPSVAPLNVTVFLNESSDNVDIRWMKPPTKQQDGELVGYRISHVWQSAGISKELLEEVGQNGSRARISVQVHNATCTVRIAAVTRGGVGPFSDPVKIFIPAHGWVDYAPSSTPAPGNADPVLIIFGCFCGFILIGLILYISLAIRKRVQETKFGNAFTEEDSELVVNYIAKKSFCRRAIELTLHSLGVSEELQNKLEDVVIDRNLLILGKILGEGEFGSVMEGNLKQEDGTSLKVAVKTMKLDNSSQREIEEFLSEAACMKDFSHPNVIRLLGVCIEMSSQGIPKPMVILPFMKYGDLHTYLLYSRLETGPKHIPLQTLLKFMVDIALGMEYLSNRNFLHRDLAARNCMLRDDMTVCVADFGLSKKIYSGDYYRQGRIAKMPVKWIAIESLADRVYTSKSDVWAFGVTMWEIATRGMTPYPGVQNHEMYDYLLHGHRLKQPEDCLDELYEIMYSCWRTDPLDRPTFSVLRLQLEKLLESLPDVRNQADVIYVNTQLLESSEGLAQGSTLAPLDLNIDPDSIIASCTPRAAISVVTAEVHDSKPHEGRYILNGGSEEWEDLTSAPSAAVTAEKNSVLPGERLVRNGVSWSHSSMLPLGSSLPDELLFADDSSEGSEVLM

[5] = target: [Pyruvate dehydrogenase (acetyl-transferring)] kinase isozyme 1, mitochondrial (Homo sapiens, UniProt Q15118); test: Selectivity interaction (ActivX KiNativ screen (kinase selectivity in THP-1 cell lysates)) EUB0000639a PDK1; type: subcellular; conditions: lysate
[6] = target: Serine/threonine-protein kinase PAK 6 (Homo sapiens) (UniProt Q9NQU5); test: Selectivity interaction (ProQinase) EUB0000171b PAK6
Serine/threonine-protein kinase PAK 6 (Homo sapiens), sequence (Q9NQU5 whole entry, looked up): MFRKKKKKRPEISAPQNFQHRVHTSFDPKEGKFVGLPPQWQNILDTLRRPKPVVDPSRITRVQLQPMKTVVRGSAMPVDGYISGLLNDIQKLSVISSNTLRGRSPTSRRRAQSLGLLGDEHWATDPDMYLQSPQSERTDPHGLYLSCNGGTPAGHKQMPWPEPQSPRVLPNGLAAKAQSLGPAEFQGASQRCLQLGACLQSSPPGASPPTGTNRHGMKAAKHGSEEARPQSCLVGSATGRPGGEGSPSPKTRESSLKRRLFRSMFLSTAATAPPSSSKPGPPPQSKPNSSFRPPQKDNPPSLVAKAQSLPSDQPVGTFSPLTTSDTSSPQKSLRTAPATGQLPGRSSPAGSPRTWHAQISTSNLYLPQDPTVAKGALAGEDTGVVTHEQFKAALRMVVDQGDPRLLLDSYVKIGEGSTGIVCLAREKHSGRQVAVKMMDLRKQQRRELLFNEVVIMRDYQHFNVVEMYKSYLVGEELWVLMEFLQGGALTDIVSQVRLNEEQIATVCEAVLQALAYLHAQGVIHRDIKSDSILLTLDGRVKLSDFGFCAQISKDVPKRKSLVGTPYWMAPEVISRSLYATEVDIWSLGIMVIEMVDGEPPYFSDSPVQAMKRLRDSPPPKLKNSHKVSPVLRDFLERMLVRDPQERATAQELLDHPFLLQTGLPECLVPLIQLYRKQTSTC

[7] = target: Dual specificity testis-specific protein kinase 1 (Homo sapiens) (UniProt Q15569); test: Selectivity interaction (KinomeScan (DiscoverX)) EUB0001049a TESK1; conditions: at 1 µM
[8] = target: T3, Dual specificity mitogen-activated protein kinase kinase 7 (Homo sapiens) (UniProt O14733); test: Selectivity interaction (KinomeScan (DiscoverX)) EUB0000666a MAP2K7; conditions: at 10 µM
T3 sequence (whole entry): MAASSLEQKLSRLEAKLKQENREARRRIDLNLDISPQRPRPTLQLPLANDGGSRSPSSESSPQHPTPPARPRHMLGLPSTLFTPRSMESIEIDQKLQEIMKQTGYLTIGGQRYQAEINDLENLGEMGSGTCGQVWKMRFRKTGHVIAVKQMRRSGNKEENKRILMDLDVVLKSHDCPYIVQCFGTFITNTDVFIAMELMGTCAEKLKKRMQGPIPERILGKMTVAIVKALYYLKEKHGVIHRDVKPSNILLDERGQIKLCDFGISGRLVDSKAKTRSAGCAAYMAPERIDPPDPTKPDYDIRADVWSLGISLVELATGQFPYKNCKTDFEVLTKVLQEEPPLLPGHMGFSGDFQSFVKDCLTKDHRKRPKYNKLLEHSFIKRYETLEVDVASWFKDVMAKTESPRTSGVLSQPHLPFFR

[9] = target: Tyrosine-protein kinase Fer (Homo sapiens) (UniProt P16591); test: Selectivity interaction (KinomeScan (DiscoverX)) EUB0000666a FER; conditions: at 10 µM
Tyrosine-protein kinase Fer (Homo sapiens), sequence (P16591 whole entry, looked up): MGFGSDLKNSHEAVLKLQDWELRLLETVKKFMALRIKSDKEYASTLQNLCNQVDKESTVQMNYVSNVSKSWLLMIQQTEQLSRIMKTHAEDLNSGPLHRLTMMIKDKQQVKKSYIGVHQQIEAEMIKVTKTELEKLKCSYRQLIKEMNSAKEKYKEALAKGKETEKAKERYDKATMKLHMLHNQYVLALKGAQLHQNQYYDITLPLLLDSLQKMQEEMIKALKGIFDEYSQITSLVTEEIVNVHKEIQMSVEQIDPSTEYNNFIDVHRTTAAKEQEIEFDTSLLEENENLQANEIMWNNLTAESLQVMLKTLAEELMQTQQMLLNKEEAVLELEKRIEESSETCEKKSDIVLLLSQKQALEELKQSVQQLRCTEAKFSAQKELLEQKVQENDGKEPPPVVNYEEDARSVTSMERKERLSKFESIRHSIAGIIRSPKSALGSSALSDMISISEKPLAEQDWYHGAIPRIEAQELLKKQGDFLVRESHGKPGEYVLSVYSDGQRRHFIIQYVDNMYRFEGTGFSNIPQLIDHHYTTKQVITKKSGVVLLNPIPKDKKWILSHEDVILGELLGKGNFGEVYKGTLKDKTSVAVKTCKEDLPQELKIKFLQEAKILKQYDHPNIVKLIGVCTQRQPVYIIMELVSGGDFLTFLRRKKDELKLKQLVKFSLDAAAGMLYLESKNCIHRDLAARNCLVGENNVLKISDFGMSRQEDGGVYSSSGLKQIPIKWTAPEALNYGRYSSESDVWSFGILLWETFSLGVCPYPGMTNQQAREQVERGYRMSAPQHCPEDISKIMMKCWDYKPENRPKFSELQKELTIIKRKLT

[10] = target: Serine/threonine-protein kinase pim-1 (Homo sapiens, UniProt P11309); test: Selectivity interaction (Kinase screening (Nanosyn)) EUB0000604a PIM1
Serine/threonine-protein kinase pim-1, sequence (P11309 whole entry, looked up): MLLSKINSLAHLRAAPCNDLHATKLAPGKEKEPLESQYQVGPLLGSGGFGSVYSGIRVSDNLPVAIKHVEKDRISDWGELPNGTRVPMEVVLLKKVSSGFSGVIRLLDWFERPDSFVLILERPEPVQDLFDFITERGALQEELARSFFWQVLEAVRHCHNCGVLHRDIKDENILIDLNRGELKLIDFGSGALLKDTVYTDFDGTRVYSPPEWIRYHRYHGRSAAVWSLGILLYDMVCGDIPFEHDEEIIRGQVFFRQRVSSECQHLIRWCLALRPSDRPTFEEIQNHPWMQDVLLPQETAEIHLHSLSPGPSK

[11] = target: Fibroblast growth factor receptor 4 (Homo sapiens, UniProt P22455); test: Selectivity interaction (KinomeScan (DiscoverX)) EUB0000695a FGFR4; conditions: at 100 nM
Fibroblast growth factor receptor 4, sequence (P22455 22-802 limits assumed): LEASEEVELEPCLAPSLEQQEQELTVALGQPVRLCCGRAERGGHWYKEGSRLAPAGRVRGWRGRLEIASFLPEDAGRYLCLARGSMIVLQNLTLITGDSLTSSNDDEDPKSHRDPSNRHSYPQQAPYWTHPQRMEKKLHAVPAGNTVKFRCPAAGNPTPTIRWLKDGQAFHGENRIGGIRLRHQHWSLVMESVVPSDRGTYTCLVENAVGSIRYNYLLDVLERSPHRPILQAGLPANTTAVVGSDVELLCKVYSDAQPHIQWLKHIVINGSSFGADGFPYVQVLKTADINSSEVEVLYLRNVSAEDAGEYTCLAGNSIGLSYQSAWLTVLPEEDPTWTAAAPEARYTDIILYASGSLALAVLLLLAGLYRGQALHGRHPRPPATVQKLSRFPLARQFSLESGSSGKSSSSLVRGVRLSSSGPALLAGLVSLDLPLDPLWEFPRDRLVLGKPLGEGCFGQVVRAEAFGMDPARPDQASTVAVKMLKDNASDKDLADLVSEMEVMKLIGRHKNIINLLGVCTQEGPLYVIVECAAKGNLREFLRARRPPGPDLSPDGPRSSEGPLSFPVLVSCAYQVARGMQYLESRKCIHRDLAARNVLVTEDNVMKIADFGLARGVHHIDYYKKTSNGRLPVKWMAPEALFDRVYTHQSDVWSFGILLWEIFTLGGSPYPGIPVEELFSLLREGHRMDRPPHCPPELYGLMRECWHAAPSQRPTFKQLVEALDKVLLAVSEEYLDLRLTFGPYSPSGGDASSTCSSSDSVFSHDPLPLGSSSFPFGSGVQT

SMILES: CCN(CC)CCCCNc1ncc2cc(-c3cc(OC)cc(OC)c3)c(NC(=O)NC(C)(C)C)nc2n1
- % of control [1]: 100%

SMILES: CN(C)C/C=C/C(=O)Nc1ccc(C(=O)N2CCCC(Nc3ncc(Cl)c(-c4c[nH]c5ccccc45)n3)C2)cc1 (stereo not drawn)
- % of control [2]: 87%

SMILES: Nc1cnc(N2CCc3cc(S(=O)(=O)Nc4c(F)cc(Cl)cc4F)cc(N4CCCC4=O)c32)nc1 [TP-020n]
- % of control (Activated CDC42 kinase 1): 91%

SMILES: O[C@H]1CC[C@H](Nc2ncc3nc(Nc4c(F)cc(F)cc4F)n([C@H]4CCOC4)c3n2)CC1
- % of control [3]: 100%

SMILES: CNC(=O)Nc1ccc(-c2nc(N3CC4CCC(C3)O4)c3cnn(C4CCC5(CC4)OCCO5)c3n2)cc1
- % of control (Ephrin type-A receptor 4): 100%

SMILES: Cc1cc([C@@H](C)Nc2ccccc2C(=O)O)c2nc(N3CCOCC3)cc(=O)n2c1 [AZD-6482]
- % of control [4]: 100%

SMILES: CC[C@@H]1[C@H](F)C(=O)N[C@@H]1COc1nccc2cc(C(N)=O)c(OC)cc12 [ZIMLOVISERTIB]
- % of inhibition ([5]; at 0.01 µM): 1.3%
- % of inhibition ([5]; at 0.04 µM): 12.1%
- % of inhibition ([5]; at 0.2 µM): 12.1%
- % of inhibition ([5]; at 1 µM): 12.5%
- % of inhibition ([5]; at 5 µM): 28.1%

SMILES: C=CC(=O)Nc1cccc(C(=O)Nc2ccc(Nc3cc(-c4[nH]c(SC)nc4C)ccn3)cc2)c1
- % of control ([6]; at 1 µM): 92%
- % of control ([6]; at 5 µM): 76%

SMILES: COc1cc(Nc2nc(C)cc(-c3cnn4nc(OC)ccc34)n2)cc(C(F)(F)F)c1
- % of control [7]: 73%

SMILES: O=C(NOC[C@H](O)CO)c1ccc(F)c(F)c1Nc1ccc(I)cc1F
- % of control [8]: 100%
- % of control [9]: 100%

SMILES: Cc1cnc(Nc2ccc(F)cc2Cl)nc1-c1c[nH]c(C(=O)N[C@H](CO)c2cccc(Cl)c2)c1
- % of inhibition [10]: 0%

SMILES: Cc1cc(F)c(C(=O)Nc2cccc(-c3nncn3C(C)C)n2)cc1-n1cnc(C2CC2)c1
- % of control [11]: 100%
